Data: PubChem BioAssay AID212 (DTP/NCI, 2004)
Where “and” joins values, the source holds several entries; their conditions need not be identical. Equal values may be shown once. Records with an inconclusive call do not appear.

Test system: BDF1 mice, colon carcinoma 38 sc, T/C %
Experiment: NCI In Vivo Anticancer Drug Screen. Data for tumor model Colon Carcinoma 38 (subcutaneous) in B6D2F1 (BDF1) mice
Settings: endpoint: median tumor weight (est.), schedule: Q07DX002 (ip), higher = larger tumour
Summary of the method: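 Compound antitumor activity was assessed in mice carrying transplantable tumors. Survival or tumor size was recorded, and each value is the treated-group measurement divided by that of the vehicle-treated control group.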

[1] = dose: 25.0 mg/kg/injection, vehicle: saline
[2] = dose: 50.0 mg/kg/injection, vehicle: saline
[3] = dose: 100.0 mg/kg/injection, vehicle: saline
[4] = dose: 200.0 mg/kg/injection, vehicle: saline

Structure (SMILES): Nc1ncn(C2CC(O)C(CO)O2)c(=O)n1 (configuration not stated)
- T/C (dose: 0.5 mg/kg/injection, vehicle: Klucel (hydroxypropylcellulose) (HPC)): 102 % of control
- T/C (dose: 0.5 mg/kg/injection, vehicle: saline): 90 % of control
- T/C (dose: 1.0 mg/kg/injection, vehicle: Klucel (hydroxypropylcellulose) (HPC)): 113 % of control
- T/C (dose: 1.0 mg/kg/injection, vehicle: saline): 99 % of control
- T/C (dose: 2.0 mg/kg/injection, vehicle: Klucel (hydroxypropylcellulose) (HPC)): 86 % of control
- T/C (dose: 2.0 mg/kg/injection, vehicle: saline): 75 % of control
- T/C (dose: 3.0 mg/kg/injection, vehicle: saline): 14 % of control and 34 % of control
- T/C (dose: 4.0 mg/kg/injection, vehicle: Klucel (hydroxypropylcellulose) (HPC)): 106 % of control
- T/C (dose: 4.0 mg/kg/injection, vehicle: saline): 43 % of control
- T/C (dose: 6.0 mg/kg/injection, vehicle: saline): 29 % of control and 46 % of control
- T/C (dose: 8.0 mg/kg/injection, vehicle: Klucel (hydroxypropylcellulose) (HPC)): 60 % of control
- T/C (dose: 8.0 mg/kg/injection, vehicle: saline): 28 % of control
- T/C (dose: 12.0 mg/kg/injection, vehicle: saline): 23 % of control
- T/C (dose: 16.0 mg/kg/injection, vehicle: Klucel (hydroxypropylcellulose) (HPC)): 41 % of control
- T/C (dose: 16.0 mg/kg/injection, vehicle: saline): 22 % of control
- T/C (dose: 32.0 mg/kg/injection, vehicle: Klucel (hydroxypropylcellulose) (HPC)): 43 % of control
- T/C (dose: 32.0 mg/kg/injection, vehicle: saline): 4 % of control

Structure (SMILES): CCN(CC)CCNc1ccc(C)c2sc3ccccc3c(=O)c12
- T/C [1]: 47 % of control
- T/C [2]: 78 % of control
- T/C (dose: 50.0 mg/kg/injection, vehicle: suspension in saline): 45 % of control
- T/C [3]: 105 % of control
- T/C (dose: 100.0 mg/kg/injection, vehicle: suspension in saline): 24 % of control
- T/C [4]: 16 % of control

Structure (SMILES): OCC12COCN1COC2
- T/C [1]: 82 % of control and 86 % of control
- T/C (dose: 400.0 mg/kg/injection, vehicle: saline): 85 % of control and 97 % of control
- T/C (dose: 800.0 mg/kg/injection, vehicle: saline): 91 % of control

Structure (SMILES): C=C(C)C1C2CC3(C)C4(CO4)C4OC4C3(O)C1C(=O)O2 (configuration not stated)
- T/C (dose: 0.38 mg/kg/injection, vehicle: Klucel (hydroxypropylcellulose) (HPC)): 81 % of control
- T/C (dose: 0.75 mg/kg/injection, vehicle: Klucel (hydroxypropylcellulose) (HPC)): 104 % of control
- T/C (dose: 1.5 mg/kg/injection, vehicle: Klucel (hydroxypropylcellulose) (HPC)): 112 % of control

Structure (SMILES): CN(C)c1ncnc2c1ncn2C1OC(CO)C(N)C1O (configuration not stated)
- T/C (dose: 12.5 mg/kg/injection, vehicle: saline): 110 % of control
- T/C [1]: 85 % of control
- T/C [2]: 105 % of control
- T/C [3]: 106 % of control
- T/C [4]: 63 % of control

Structure (SMILES): C[CH2][Sn]([CH2]C)([O]S(C)(=O)=O)[O]S(C)(=O)=O
- T/C (dose: 1.56 mg/kg/injection, vehicle: saline): 18 % of control
- T/C (dose: 3.13 mg/kg/injection, vehicle: saline): 78 % of control
- T/C (dose: 6.25 mg/kg/injection, vehicle: saline): 108 % of control and 117 % of control and 96 % of control
- T/C [1]: 26 % of control

Structure (SMILES): O=C([CH-]C(=O)C(F)(F)F)c1ccccc1.O=C([CH-]C(=O)C(F)(F)F)c1ccccc1.O=C([CH-]C(=O)C(F)(F)F)c1ccccc1.O=C([CH-]C(=O)C(F)(F)F)c1ccccc1.[Eu+3].c1ccncc1
- T/C (dose: 25.0 mg/kg/injection, vehicle: Klucel (hydroxypropylcellulose) (HPC)): 91 % of control
- T/C (dose: 50.0 mg/kg/injection, vehicle: Klucel (hydroxypropylcellulose) (HPC)): 88 % of control
- T/C (dose: 100.0 mg/kg/injection, vehicle: Klucel (hydroxypropylcellulose) (HPC)): 76 % of control and 82 % of control
- T/C (dose: 200.0 mg/kg/injection, vehicle: Klucel (hydroxypropylcellulose) (HPC)): 79 % of control and 88 % of control

Structure (SMILES): CCCCC(=O)OCC(=O)[C@]1(O)Cc2c(O)c3c(c(O)c2[C@@H](OC2CC(NC(=O)C(F)(F)F)C(O)C(C)O2)C1)C(=O)c1c(OC)cccc1C3=O (some centres not stated)
- T/C (dose: 25.0 mg/kg/injection, vehicle: water): 168 % of control
- T/C (dose: 100.0 mg/kg/injection, vehicle: water): 89 % of control
- T/C (dose: 200.0 mg/kg/injection, vehicle: water): 106 % of control
- T/C (dose: 400.0 mg/kg/injection, vehicle: water): 71 % of control
- T/C (dose: 800.0 mg/kg/injection, vehicle: water): 45 % of control
